The values below come from article PMC9457556, “Newly Designed Quinazolinone Derivatives as Novel Tyrosinase Inhibitor: Synthesis, Inhibitory Activity, and Mechanism” (Molecules, 2022).

Like-named read-outs stand apart in the source and are kept apart here.

Data set [1] deals with mushroom tyrosinase. The experiment in a line: Mushroom tyrosinase enzyme assay with L-DOPA as substrate (475 nm). The note with it: for inhibitory activity against tyrosinase: result in words; for IC50: L-DOPA oxidation, pH 6.8, 30 °C, mean of triplicate determinations ± standard deviation.
Experimental: Firstly, the effect of the Q1compound against the tyrosinase activity was evaluated.
We measured enzyme assay with L-DOPA as the substrate. We determined enzyme activity at 475 nm in the spectrophotometric experiments. We dissolved the test compounds in DMSO at 1 mM, which was diluted to the required concentration (0, 15, 30, 60, 120, 180, 240, 300 μM). We measured the reaction solution (3 mL), consisting 0.75 mL sodium phosphate buffer (0.1 M, pH 6.8), 1.8 mL H2O, 0.3 mL L-DOPA (2 mM), 0.1 mL test compound, and 0.05 mL enzyme (0.2 mg /L), at 30 °C. We replaced test samples as control. We determined each concentration in three experiments. We used the concentration that inhibited half of the enzyme activity (IC50) to measure the inhibitory effect of inhibitor. We investigated kinetic parameters with increasing concentrations of L-DOPA and test samples by the Lineweaver–Burk double-reciprocal plot and Dixon plot methods. We calculated the % inhibition of tyrosinase as follows: Inhibition (%) = [1 − B/A]/100, where the A and B are the absorbances of the blank control and samples, respectively.
Data set [2] can be described thus: Fluorescence quenching of tyrosine. The data set is classed as binding. The note with it: Q1 from 0 to 36 μM; intensity 447.6 to 216.5. The text has this: We also investigated the fluorescence quenching Q1 experiment regarding tyrosine activity, and recorded the fluorescence intensity of tyrosine in the range of […]. […] Thus, the compound was also a good binding agent for tyrosine in a dose-dependent manner.
(§1) We used fluorescence analysis (Varian Cary Eclipse fluorescence spectrophotometer) to perform fluorescence experiment, and set the excitation wavelength at 290 nm. We mixed inhibitor solution, substrates of tyrosine/L-DOPA or enzyme solution, and sodium phosphate buffer (pH 6.8) at the volumetric ratio of 1:1:8 (v/v/v).

A short description of data set [3]: Fluorescence quenching of L-DOPA. The note with it: Q1 from 0 to 36 μM; intensity 1619 to 879.9. The data set is classed as binding. On the procedure:
Finally, the fluorescence emission spectra of L-DOPA were tested in the solutions of Q1 with various concentrations. […] Similarly, the fluorescence emission intensity of Q1 disappeared when it was added to the solution. The results inferred that Q1 was also a good L-DOPA binding agent.
as §1

In data set [4] the test system is mushroom tyrosinase. The data set is described as follows: Kinetic studies of tyrosinase inhibition (enzyme concentration plots, Lineweaver-Burk plots). It counts as biochemical. On the procedure:
To ascertain the inhibition type and mechanism of Q1, we studied the relationship between the enzyme concentration and the remaining enzyme activity with various concentrations of Q1 (0, 15, 60, and 120 μM).
Different concentrations of the compound Q1 (0, 15, 60, and 120 μM) were applied to inhibit tyrosinase and obtain the kinetic behavior of tyrosinase catalysis. Lineweaver–Burk reciprocal plots were used to investigate the inhibition modes of Q1 on mushroom tyrosinase. […] Thus, Q1 could bind not only to the free enzymes but also to the enzyme–substrate complexes. […] Additionally, the value of KIS was measured to be 423.63 μM from the concentrations of the compound versus the vertical intercept.
We purchased mushroom tyrosinase (with specific activity 6680 U/mg), and L-3,4-dihydroxyphenyl-alanine (L-DOPA) from Sigma (St. Louis, MO, USA). We measured enzyme assay with L-DOPA as the substrate. We determined enzyme activity at 475 nm in the spectrophotometric experiments. We dissolved the test compounds in DMSO at 1 mM, which was diluted to the required concentration (0, 15, 30, 60, 120, 180, 240, 300 μM). We measured the reaction solution (3 mL), consisting 0.75 mL sodium phosphate buffer (0.1 M, pH 6.8), 1.8 mL H2O, 0.3 mL L-DOPA (2 mM), 0.1 mL test compound, and 0.05 mL enzyme (0.2 mg /L), at 30 °C. We replaced test samples as control. We determined each concentration in three experiments. We used the concentration that inhibited half of the enzyme activity (IC50) to measure the inhibitory effect of inhibitor. We investigated kinetic parameters with increasing concentrations of L-DOPA and test samples by the Lineweaver–Burk double-reciprocal plot and Dixon plot methods. We calculated the % inhibition of tyrosinase as follows: Inhibition (%) = [1 − B/A][…], where the A and B are the absorbances of the blank control and samples, respectively.

Data set [5] deals with mushroom tyrosinase. The data set is described as follows: Fluorescence quenching of mushroom tyrosinase. Particulars: Q1 at 36 μM; excitation 290 nm, emission peak 333 nm. It counts as binding. On the procedure: The intrinsic interaction mechanisms of Q1 on the tyrosinase were investigated by the fluorescence quenching analysis. The fluorescence emission spectrum was recorded as ranging from 310 to 550 nm at a 290 nm excitation wavelength. […] However, the fluorescence intensity of tyrosinase reduced gradually as the concentration of the citral derivative increased.
as §1

For data set [6], the target named is mushroom tyrosinase. Set-up: method as in PMID 20638280. Particulars: standard inhibitor; cited from earlier work.

As for `COc1ccc(-c2nc3ccccc3c(=O)[nH]2)cc1` [Compound Q7, 2-(4-methoxyphenyl)quinazolin-4(3H)-one], the “inhibitory activity against tyrosinase” value with mushroom tyrosinase [1] is on record as “did not exhibit inhibitory activity”.
One may read the melting point as the temperature, or range, at which the solid turns liquid. The term IC50 denotes the concentration needed to halve the response being measured. `CC(C)=CCCC(C)=Cc1nc2ccc(Cl)cc2c(=O)[nH]1` [Compound Q3, 6-chloro-2-(2,6-dimethylhepta-1,5-dien-1-yl)quinazolin-4(3H)-one] yielded a melting point of 190 to 192 °C. For the same molecule, the midpoint of inhibition at mushroom tyrosinase [1], the IC50, lay at 168 ± 2 µM.
On the same counts, the results for `CC(C)=CCCC(C)=Cc1nc2cc(C)ccc2c(=O)[nH]1` [Compound Q4, 2-(2,6-dimethylhepta-1,5-dien-1-yl)-7-methylquinazolin-4(3H)-one] are 188 to 192 °C and 253 ± 2 µM.
As usually defined, the Ki is the dissociation constant of the complex between target and ligand, obtained from inhibition or displacement. For the molecule `CC(C)=CCCC(C)=Cc1nc2ccccc2c(=O)[nH]1` [Compound Q1, 2-(2,6-dimethylhepta-1,5-dien-1-yl)quinazolin-4(3H)-one], the “decrease of fluorescence intensity of tyrosine” value in data set [2] worked out at 51.63%. In data set [3], the “decrease of fluorescence intensity of L-DOPA” value is 45.65%. In addition, the half-maximal inhibitory concentration (IC50) against mushroom tyrosinase [1] amounted to 103 ± 2 µM. In addition, the inhibition type entry in the data set with mushroom tyrosinase [4] (Lineweaver-Burk plots, Q1 at 0, 15, 60, 120 μM) is recorded as “mixed inhibition type”. For the same molecule, the reversibility of inhibition result with mushroom tyrosinase [4] (enzyme activity versus enzyme concentration, Q1 at 0, 15, 60, 120 μM) is reported as “reversible”. Further, the KIS at mushroom tyrosinase [4] (enzyme-substrate complex, from vertical intercept versus compound concentration) is 423.63 µM. Moreover, the Ki at mushroom tyrosinase [4] (free enzyme, from plots of slope versus compound concentration, read-out: inhibitor constant (KI)) turned out to be 117 µM. For the same molecule, the “relative fluorescence intensity of tyrosinase” value in the data set with mushroom tyrosinase [5] was 39.45%.
Take `OC[C@H]1O[C@@H](Oc2ccc(O)cc2)[C@H](O)[C@@H](O)[C@@H]1O` [arbutin]: on mushroom tyrosinase [6], the IC50 was 180 µM.
Molecule `CC(C)=CCCC(C)=Cc1nc2cccc(F)c2c(=O)[nH]1` [Compound Q2, 2-(2,6-dimethylhepta-1,5-dien-1-yl)-5-fluoroquinazolin-4(3H)-one] registered a melting point of 189 to 191 °C. At mushroom tyrosinase [1], this molecule returned an IC50 of 105 ± 1 µM.
Turning to `Cc1ccc(-c2nc3ccccc3c(=O)[nH]2)cc1` [Compound Q6, 2-(p-tolyl)quinazolin-4(3H)-one], the “inhibitory activity against tyrosinase” value in the data set on mushroom tyrosinase [1] was “did not exhibit inhibitory activity”.
